Starred links: 1 amine or outer side, 2 acyl side, 3 side chain; linkers in the order of their positions; H or OH if unused. Non-standard residues stand in square brackets, D forms with d. Residues, ends and D or L forms follow the SMILES beside them. *: point of attachment. NMeβ3hLys = CN([C@@H](CCCCN)CC(=O)[*:2])[*:1]; Pentanoyl(5-guanidino) = NC(N)=NCCCCC(=O)*; Tle = CC(C)(C)[C@H](N)C(=O)O; β3hK = NCCCC[C@H](N)CC(=O)O; Ahp = NCCCCCCC(=O)O
Assays:
[1] = Metabolic stability in human serum assessed as half time of disappearance at 1 mM by MALDI-TOF mass spectrometry assay; type: ADME, cell-free; conditions: read-out: T50
[2] = Metabolic stability in rat serum assessed as half time of disappearance at 1 mM by MALDI-TOF mass spectrometry assay; type: ADME, cell-free; conditions: read-out: T50
[3] = biological target: T1, Neurotensin receptor type 1 (Homo sapiens, UniProt P30989); assay: Displacement of [125I]I-Tyr(3)NT from human NTR1
[4] = biological target: T1, Neurotensin receptor type 1; assay: Agonist activity at NTR1 in human HT-29 cells assessed as increase in intracellular calcium concentration by FLIPR assay; type: functional, cell-based
[5] = test system: Rattus norvegicus; assay: Hypothermic activity in Sprague-Dawley rat assessed as time duration of maximal body temperature decrease at 5 mg/kg, ip; type: functional; conditions: route intraperitoneal
[6] = test system: Rattus norvegicus; assay: Hypothermic activity in Sprague-Dawley rat assessed as decrease in core body temperature at 5 mg/kg, ip at time of maximal body temperature decrease; type: functional; conditions: route intraperitoneal
[7] = test system: Serum; assay: Metabolic stability in human serum assessed as compound degradation rate at 1 mM by MALDI-TOF mass spectrometry assay; type: ADME, cell-free; conditions: 1000 µM
[8] = test system: Serum; assay: Metabolic stability in rat serum assessed as compound degradation rate at 1 mM by MALDI-TOF mass spectrometry assay; type: ADME, cell-free; conditions: 1000 µM

T1 sequence (P30989 whole entry): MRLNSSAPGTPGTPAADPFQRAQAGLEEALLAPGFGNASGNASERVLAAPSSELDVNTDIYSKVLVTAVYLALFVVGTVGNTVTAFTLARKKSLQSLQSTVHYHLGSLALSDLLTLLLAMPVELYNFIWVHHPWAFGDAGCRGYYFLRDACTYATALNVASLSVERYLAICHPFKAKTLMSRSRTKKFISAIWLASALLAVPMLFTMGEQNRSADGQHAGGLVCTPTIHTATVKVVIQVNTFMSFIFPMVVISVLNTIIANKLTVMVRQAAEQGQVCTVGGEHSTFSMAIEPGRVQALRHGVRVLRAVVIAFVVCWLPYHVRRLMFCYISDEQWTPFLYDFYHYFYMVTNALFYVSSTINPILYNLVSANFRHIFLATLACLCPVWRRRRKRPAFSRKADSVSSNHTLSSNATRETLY

SMILES	half-life at 1000 µM [1] [h]	half-life at 1000 µM [2] [h]	IC50 [3] [nM]	Ki [3] [nM]	EC50 [4] [nM]	Time [5] [min]	Activity [6] [°C]	Activity [7] [µmol/min]	Activity [8] [µmol/min]
CC(=O)N[C@@H](CCCNC(=N)N)C(=O)N[C@@H](CCCCN)C(=O)N1CCC[C@H]1C(=O)N[C@@H](Cc1c[nH]c2ccccc12)C(=O)N[C@H](C(=O)N[C@@H](CC(C)C)C(=O)O)C(C)(C)C (Ac-RKPW[Tle]L-OH)	124	94.3	863	647	764	270	-4.3	0.068	0.089
CN[C@@H](CCCCN)CC(=O)N[C@@H](CCCNC(=N)N)C(=O)N1CCC[C@H]1C(=O)N[C@@H](Cc1ccc(O)cc1)C(=O)N[C@H](C(=O)N[C@@H](CC(C)C)C(=O)O)C(C)(C)C (NMeβ3hLys-RPY[Tle]L-OH)						180	-3.68		
CC(C)C[C@H](NC(=O)[C@@H](NC(=O)[C@H](Cc1c[nH]c2ccccc12)NC(=O)[C@@H]1CCCN1C(=O)[C@H](CCCCN)NC(=O)[C@@H](N)CCCN=C(N)N)C(C)(C)C)C(=O)O (H-RKPW[Tle]L-OH)	0.263	0.225	403	303	217			31.8	37
CC[C@@H](C)[C@H](NC(=O)[C@H](Cc1ccc(O)cc1)NC(=O)[C@@H]1CCCN1C(=O)[C@H](CCCN=C(N)N)NC(=O)[C@H](CCCN=C(N)N)N=[N+]=[N-])C(=O)N[C@@H](CC(C)C)C(=O)O	5.05	2.35	0.97	0.73	0.78			1.65	3.53
CC(=O)N[C@@H](CCCCN)CC(=O)N[C@@H](CCCNC(=N)N)C(=O)N1CCC[C@H]1C(=O)N[C@@H](Cc1ccc(O)cc1)C(=O)N[C@H](C(=O)N[C@@H](CC(C)C)C(=O)O)C(C)(C)C (Ac-[β3hK]RPY[Tle]L-OH)						150	-3.54		
CC[C@H](C)[C@H](NC(=O)[C@H](Cc1ccc(O)cc1)NC(=O)[C@@H]1CCCN1C(=O)[C@H](CCCNC(=N)N)NC(=O)[C@@H](N)CCCNC(=N)N)C(=O)N[C@@H](CC(C)C)C(=O)O	0.282	0.167						29.6	49.8
CN[C@@H](CCCCN)CC(=O)N[C@@H](CCCN=C(N)N)C(=O)N1CCC[C@H]1C(=O)N[C@@H](Cc1ccc(O)cc1)C(=O)N[C@H](C(=O)N[C@@H](CC(C)C)C(=O)O)C(C)(C)C (NMeβ3hLys-RPY[Tle]L-OH)	57.2	71.8	27	20.3	7.96			0.146	0.117
CC(C)C[C@H](NC(=O)[C@@H](NC(=O)[C@H](Cc1ccc(O)cc1)NC(=O)[C@@H]1CCCN1C(=O)[C@H](CCCNC(=N)N)NC(=O)CCCCCCN)C(C)(C)C)C(=O)O (H-[Ahp]RPY[Tle]L-OH)	41	74.8	3.99	2.99	25.8	90	-2.58	0.204	0.111
CC[C@@H](C)[C@H](NC(=O)[C@H](Cc1ccc(O)cc1)NC(=O)[C@@H]1CCCN1C(=O)[C@H](CCCNC(=N)N)NC(=O)[C@@](C)(N)CCCNC(=N)N)C(=O)N[C@@H](CC(C)C)C(=O)O	18.8	3.65				150	-0.28	0.444	2.28
CC(C)C[C@H](NC(=O)[C@@H](NC(=O)[C@H](Cc1c[nH]c2ccccc12)NC(=O)[C@@H]1CCCN1C(=O)[C@H](CCCCN)NC(=O)CCCCNC(=N)N)C(C)(C)C)C(=O)O ({Pentanoyl(5-guanidino)}-KPW[Tle]L-OH)	103	108	842	631	783	240	-5.02	0.081	0.078
COc1cccc(OC)c1-c1cc(C(=O)NC2(C(=O)O)C3CC4CC(C3)CC2C4)nn1-c1ccnc2cc(Cl)ccc12 (stereo not drawn) [REMINERTANT]			0.99						
CC[C@H](C)[C@H](NC(=O)[C@H](Cc1ccc(O)cc1)NC(=O)[C@@H]1CCCN1C(=O)[C@H](CCCN=C(N)N)NC(=O)[C@H](CCCN=C(N)N)NC(C)=O)C(=O)N[C@@H](CC(C)C)C(=O)O						90	-0.71		
CC[C@@H](C)[C@H](NC(=O)[C@H](Cc1ccc(O)cc1)NC(=O)[C@@H]1CCCN1C(=O)[C@H](CCCNC(=N)N)NC(=O)CCCCNC(=N)N)C(=O)N[C@@H](CC(C)C)C(=O)O	3.83	1.45	2.68	2.01	1.85	120	-0.99	2.17	5.74
CC[C@@H](C)[C@H](NC(=O)[C@H](Cc1ccc(O)cc1)NC(=O)[C@@H]1CCCN1C(=O)[C@H](CCCNC(=N)N)NC(=O)[C@H](CCCNC(=N)N)NC)C(=O)N[C@@H](CC(C)C)C(=O)O	14	4.33	0.383	0.29	0.853	120	-1.55	0.593	1.92
CC(C)C[C@H](NC(=O)[C@@H](NC(=O)[C@H](Cc1c[nH]c2ccccc12)NC(=O)[C@@H]1CCCN1C(=O)[C@H](CCCCN)NC(=O)[C@@H](N)CCCNC(=N)N)C(C)(C)C)C(=O)O (H-RKPW[Tle]L-OH)						120	-2.11		
CC[C@H](C)[C@H](NC(=O)[C@H](Cc1ccc(O)cc1)NC(=O)[C@@H]1CCCN1C(=O)[C@H](CCCN=C(N)N)NC(=O)[C@@H](N)CCCN=C(N)N)C(=O)N[C@@H](CC(C)C)C(=O)O						300	-0.55		
CC[C@H](C)[C@H](NC(=O)[C@H](Cc1ccc(O)cc1)NC(=O)[C@@H]1CCCN1C(=O)[C@H](CCCNC(=N)N)NC(=O)[C@H](CCCNC(=N)N)NC(C)=O)C(=O)N[C@@H](CC(C)C)C(=O)O	11.9	3.5						0.701	2.38
CC(=O)N[C@@H](CCCCN)CC(=O)N[C@@H](CCCN=C(N)N)C(=O)N1CCC[C@H]1C(=O)N[C@@H](Cc1ccc(O)cc1)C(=O)N[C@H](C(=O)N[C@@H](CC(C)C)C(=O)O)C(C)(C)C (Ac-[β3hK]RPY[Tle]L-OH)	54.5	57	181	136	57.7			0.153	0.146

Source: ChEMBL document CHEMBL1153387 (J Med Chem, 2009)
